Where a SMILES comes first, the peptide text is derived from it. The star is where a group is joined. X20 = CC(=O)Oc1ccc2cc(C(=O)*)ccc2c1; X22 = O=C(CCc1cccc(OS(=O)(=O)O)c1)*; X2 = O=C(c1cc2cc(Cl)ccc2[nH]1)*; X37 = O=C(C=Cc1c[nH]c2ccccc12)*; X21 = O=C(/C=C\c1ccc(Br)cc1)*; X19 = O=C(/C=C\c1ccccc1)*; Boc = CC(C)(C)OC(=O)*
Target: Gastrin/cholecystokinin type B receptor (Cavia porcellus)
Test: Inhibition of specific binding of [125I]BH-CCK-8 in guinea pig cortex

Structure (SMILES) | IC50 [µM]
CC(C)(C)OC(=O)N[C@@H](Cc1c[nH]c2ccccc12)C(=O)N[C@@H](CCCCNC(=O)CCc1cccc(OS(=O)(=O)O)c1)C(=O)N[C@@H](CC(=O)O)C(=O)N[C@@H](Cc1ccccc1)C(N)=O [3-{2-[2-tert-Butoxycarbonylamino-3-(1H-indol-3-yl)-propionylamino]-6-[3-(3-sulfooxy-phenyl)-propionylamino]-hexanoylamino}-N-(1-carbamoyl-2-phenyl-ethyl)-succinamic acid; NH40H.hydrate] (Boc-WK(X22)DF-NH2) | 10
CC(C)(C)OC(=O)N[C@@H](Cc1c[nH]c2ccccc12)C(=O)N[C@@H](CCCCNC(=O)/C=C\c1ccccc1)C(=O)N[C@@H](CC(=O)O)C(=O)N[C@@H](Cc1ccccc1)C(N)=O [3-[2-[2-tert-Butoxycarbonylamino-3-(1H-indol-3-yl)-propionylamino]-6-(3-phenyl-acryloylamino)-hexanoylamino]-N-(1-carbamoyl-2-phenyl-ethyl)-succinamic acid.AcOH] (Boc-WK(X19)DF-NH2) | 1.8
CC(C)(C)OC(=O)N[C@@H](Cc1c[nH]c2ccccc12)C(=O)N[C@@H](CCCCNC(=O)/C=C\c1ccc(Br)cc1)C(=O)N[C@@H](CC(=O)O)C(=O)N[C@@H](Cc1ccccc1)C(N)=O [3-{6-[3-(4-Bromo-phenyl)-acryloylamino]-2-[2-tert-butoxycarbonylamino-3-(1H-indol-3-yl)-propionylamino]-hexanoylamino}-N-(1-carbamoyl-2-phenyl-ethyl)-succinamic acid; hydrate.NH4OH] (Boc-WK(X21)DF-NH2) | 5.1
CC(=O)Oc1ccc2cc(C(=O)NCCCC[C@H](NC(=O)[C@H](Cc3c[nH]c4ccccc34)NC(=O)OC(C)(C)C)C(=O)N[C@@H](CC(=O)O)C(=O)N[C@@H](Cc3ccccc3)C(N)=O)ccc2c1 (Boc-WK(X20)DF-NH2) | 1.4
CC(C)(C)OC(=O)N[C@@H](Cc1c[nH]c2ccccc12)C(=O)N[C@@H](CCCCNC(=O)C=Cc1c[nH]c2ccccc12)C(=O)N[C@@H](CC(=O)O)C(=O)N[C@@H](Cc1ccccc1)C(N)=O (Boc-WK(X37)DF-NH2) | 4.7
CC(C)(C)OC(=O)N[C@@H](Cc1c[nH]c2ccccc12)C(=O)N[C@@H](CCCCNC(=O)c1cc2cc(Cl)ccc2[nH]1)C(=O)N[C@@H](CC(=O)O)C(=O)N[C@@H](Cc1ccccc1)C(N)=O (Boc-WK(X2)DF-NH2) | 5.2
